Data from patent US8367727B2, “Method of using abscisic acid to treat diseases and disorders” (priority 2006, dated 2013).

Legend:
PPAR γ = target: T1, PPAR γ (Mus musculus, UniProt P37238); test: PPAR γ transactivation (luciferase reporter) in transfected 3T3-L1 pre-adipocytes; type: cell-based
T1 construct: expressed in transfected cells; host or cells: 3T3-L1 pre-adipocytes (ATCC)
T1 sequence (P37238 1-505): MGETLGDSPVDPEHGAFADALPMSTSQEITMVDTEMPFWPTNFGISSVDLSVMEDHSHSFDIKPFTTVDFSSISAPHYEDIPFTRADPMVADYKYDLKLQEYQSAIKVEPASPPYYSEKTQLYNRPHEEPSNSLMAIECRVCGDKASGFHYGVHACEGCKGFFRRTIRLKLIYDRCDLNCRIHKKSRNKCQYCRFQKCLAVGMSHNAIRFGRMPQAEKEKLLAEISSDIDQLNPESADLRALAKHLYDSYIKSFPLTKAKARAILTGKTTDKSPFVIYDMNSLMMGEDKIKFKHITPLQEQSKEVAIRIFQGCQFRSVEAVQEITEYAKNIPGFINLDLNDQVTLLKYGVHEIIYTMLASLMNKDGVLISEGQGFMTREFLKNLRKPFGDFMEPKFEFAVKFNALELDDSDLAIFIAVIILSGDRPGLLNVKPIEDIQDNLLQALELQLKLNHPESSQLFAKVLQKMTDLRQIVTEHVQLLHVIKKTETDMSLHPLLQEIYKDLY
Method: Transformation plasmid DNA was performed using One Shot TOP10 (Invitrogen, Carlsbad, Calif.). Briefly, […] of the ligation reaction were added to a thawed 50 μl vial of One Shot® cells for each reaction. The vials were then set on ice for 30 minutes, followed by 30 seconds incubation in a 42° C. water bath. Afterwards, 250 μl of pre-warmed S.O.C medium was added to each vial. Vials were then secured on their sides in a microcentrifuge rack and were placed in a Gyromax 727 orbital shaking incubator (Amerex Instruments, Lafayette, Calif.) and incubated at 37° C. at 225 rpm. After 1 hour incubation, 100 μl of each transformation vial was spread on separate, labeled LB agar plates (Sigma-Aldrich, Milwaukee, Wis.), inverted, and incubated at 37° C. overnight. Colonies were selected and isolated using Plasmid Maxi Kit (Qiagen, Valencia, Calif.) according to manufacturer's instructions. After isolation, the plasmids were transfected into 3T3-L1 pre-adipocytes (American Type Culture Collection, Manassas, Va.) using the Targefect-BAC transfection kit. (Targeting Systems, Santee, Calif.). Briefly, 3T3-L1 cells were cultured in complete DMEM high glucose media (Invitrogen) at 37° C. for 2 days until confluence. After digestion with 2 ml trypsin (Mediatech, Herndon, Va.), the cells were resuspended in 6 ml high glucose DMEM (Mediatech) and then aliquoted into a 24 well plate. […] On the day of the reading, the cells were washed with 500 μl PBS and lysed with 100 μl lysis reagent (Promega, Madison, Wis.). After 15 minutes, lysed cells were collected and luciferase activity for each concentration was calculated using the Dual-Luciferase reporter assay system (Promega) and TD-20/20 Single-Tube Luminometer (Turner Biosystems, Sunnyvale, Calif.) according to manufacturers' instructions. Relative luciferase activity (RLA) was calculated as a ratio of the chemiluminescence 10 seconds after the Luciferase Assay Reagent II (Promega) was added over the chemiluminescence 10 seconds after the Stop&Glo Reagent (Promega). […]

Total lymphocytes = test: Lymphocyte blastogenesis test (LBT); type: cell-based, mice; settings: 100 mg ABA/kg diet
Method: Single cell suspensions were prepared from the spleen by gently crushing the spleens excised during the necropsy procedure between the frosted ends of microscope glass slides previously autoclaved. Tissue debris were removed by settling, erythrocytes were eliminated by hypotonic lysis and cells finally resuspended in complete RPMI (cRPMI, 10% fetal bovine serum (Hyclone, Logan, Utah), 25 mM HEPES buffer (Sigma, St. Louis, Mo.), 100 units/ml penicillin (Sigma), […] streptomycin (Sigma), 1 mM sodium pyruvate (Sigma), 1 mM nonessential aminoacids (Sigma), and 2 mM essential amino acids (Mediatech), and enumerated with a Coulter Z1 Single Particle Counter (Beckman Coulter, Miami, Fla.).
Wells of 96-well, round bottom microtiter plates were seeded with 2×10^5 splenocytes in a total volume of […] per well. Cells were cultured in cRPMI media with or without 2.5 μg/ml of Concanavalin A (Sigma) for 4 days. On day 4, […] of methyl-[^3Thymidine] was added to each well, and cells we incubate for 20 additional hours. Well contents were harvested onto glass fiber filters using cell harvester, and incorporated radioactivity measured by liquid scintillation counting. Samples were run in triplicate for each animal and ex-vivo treatment. Stimulation indices were calculated by dividing counts per minute of mitogen-stimulated wells by counts per minute of unstimulated wells.

[1] = test system: adipose tissue macrophages (ATM); test: Flow cytometry of adipose tissue macrophage subsets in stromal-vascular fraction of WAT, db/db mice; type: in vivo

CC1=CC(=O)CC(C)(C)C1(O)/C=C/C(C)=C\C(=O)O (racemic) [ABA, abscisic acid]
PPAR γ activity at 50 μM versus 10 μM (PPAR γ; 50 μM ABA): No additional increase in PPAR γ activity | potency relative to rosiglitazone (times less potent) (PPAR γ; in vitro, 3T3-L1): 10 fold | ABA concentration at which relative luciferase activity begins to be significantly increased (PPAR γ; racemic ABA 1, 2.5, 5, 10, 50 μM, 24 hours): 10 µM | LBT Total lymphocytes SI (Total lymphocytes): 9.22 | F4/80hi CD11b+CCR2+ ATM subset ([1]; P=0.006): reduction | F4/80lo ATM ([1]; db/db mice): no effect | F4/80hi macrophage infiltration into WAT ([1]; db/db mice, P=0.05): significantly suppressed | amount of F4/80 on surface of F4/80hi macrophages (MFI) ([1]; vs control diet): significantly lower
